Data as given in PubChem BioAssay AID1919009 (Molecular Pharmacology Branch, DTP, NCI, 2023).
pIC50: −log10 of the molar value.

Test system: K24384-001-R-PDC complex spheroid growth
Assay: Anticancer human tumor K24384-001-R-PDC patient-derived pancreatic adenocarcinoma cell line growth inhibition [AhR]
Conditions: for pIC50: curve of first compound; for viability, T/C: stronger effect = lower value
In short: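 Agents were dosed in half-log steps down from roughly clinical Cmax, or from 10 microM where Cmax was unknown, alone and with AhR antagonists. Read-out: percent test/control growth of tumor spheroids containing HUVEC and MSC stromal cells.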

[1] = second compound 0.1 µM, first compound 0.0316 µM
[2] = second compound 0.1 µM, first compound 0.1 µM
[3] = second compound 0.1 µM, first compound 0.316 µM
[4] = second compound 0.1 µM, first compound 1 µM
[5] = second compound 0.1 µM, first compound 3.16 µM
[6] = second compound 0.1 µM, first compound 10 µM
[7] = second compound 0.316 µM, first compound 0.0316 µM
[8] = second compound 0.316 µM, first compound 0.1 µM
[9] = second compound 0.316 µM, first compound 0.316 µM
[10] = second compound 0.316 µM, first compound 1 µM
[11] = second compound 0.316 µM, first compound 3.16 µM
[12] = second compound 0.316 µM, first compound 10 µM
[13] = second compound 1 µM, first compound 0.0316 µM
[14] = second compound 1 µM, first compound 0.1 µM
[15] = second compound 1 µM, first compound 0.316 µM
[16] = second compound 1 µM, first compound 1 µM
[17] = second compound 1 µM, first compound 3.16 µM
[18] = second compound 1 µM, first compound 10 µM
[19] = second compound 3.16 µM, first compound 0.0316 µM
[20] = second compound 3.16 µM, first compound 0.1 µM
[21] = second compound 3.16 µM, first compound 0.316 µM
[22] = second compound 3.16 µM, first compound 1 µM
[23] = second compound 3.16 µM, first compound 3.16 µM
[24] = second compound 3.16 µM, first compound 10 µM
[25] = second compound 10 µM, first compound 0.0316 µM
[26] = second compound 10 µM, first compound 0.1 µM
[27] = second compound 10 µM, first compound 0.316 µM
[28] = second compound 10 µM, first compound 1 µM
[29] = second compound 10 µM, first compound 3.16 µM
[30] = second compound 10 µM, first compound 10 µM
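Wherever viability, T/C is given: percent of DMSO vehicle-treated spheroid viability set as 100%.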

`CC(C)CC(NC(=O)C(Cc1ccccc1)NC(=O)c1cnccn1)B(O)O` (stereo not given) + Cc1ccccc1N=Nc1ccc(NC(=O)c2ccnn2C)c(C)c1 showed a pIC50 (second compound 0.1 µM) of 7.97, a pIC50 (second compound 0.316 µM) of 8.00 and a pIC50 (second compound 1 µM) of 7.95. For the same molecule, the pIC50 (second compound 3.16 µM) was 8.01, the pIC50 (second compound 10 µM) was 7.98 and the viability, T/C (second compound 0.1 µM, first compound 0.000949 µM) was 106%. The viability, T/C (second compound 0.1 µM, first compound 0.003 µM) was 90%, the viability, T/C (second compound 0.1 µM, first compound 0.00949 µM) was 57.3% and the viability, T/C (second compound 0.1 µM, first compound 0.03 µM) was 1.13%. The viability, T/C (second compound 0.1 µM, first compound 0.0949 µM) was 0.15%, the viability, T/C (second compound 0.1 µM, first compound 0.3 µM) was 0.42% and the viability, T/C (second compound 0.316 µM, first compound 0.000949 µM) was 95.3%. The viability, T/C (second compound 0.316 µM, first compound 0.003 µM) was 76.8%, the viability, T/C (second compound 0.316 µM, first compound 0.00949 µM) was 54% and the viability, T/C (second compound 0.316 µM, first compound 0.03 µM) was 1.07%. The viability, T/C (second compound 0.316 µM, first compound 0.0949 µM) was 0.38%, the viability, T/C (second compound 0.316 µM, first compound 0.3 µM) was 0.33% and the viability, T/C (second compound 1 µM, first compound 0.000949 µM) was 104%. For the same molecule, the viability, T/C (second compound 1 µM, first compound 0.003 µM) was 79.5%, the viability, T/C (second compound 1 µM, first compound 0.00949 µM) was 60.4% and the viability, T/C (second compound 1 µM, first compound 0.03 µM) was 1.14%. The viability, T/C (second compound 1 µM, first compound 0.0949 µM) was 0.44%, the viability, T/C (second compound 1 µM, first compound 0.3 µM) was 0.38% and the viability, T/C (second compound 3.16 µM, first compound 0.000949 µM) was 83.9%. For the same molecule, the viability, T/C (second compound 3.16 µM, first compound 0.003 µM) was 102%, the viability, T/C (second compound 3.16 µM, first compound 0.00949 µM) was 51.3% and the viability, T/C (second compound 3.16 µM, first compound 0.03 µM) was 1.31%. It also gave a viability, T/C (second compound 3.16 µM, first compound 0.0949 µM) of 0.31%, a viability, T/C (second compound 3.16 µM, first compound 0.3 µM) of 0.48% and a viability, T/C (second compound 10 µM, first compound 0.000949 µM) of 97.4%. It also gave a viability, T/C (second compound 10 µM, first compound 0.003 µM) of 115%, a viability, T/C (second compound 10 µM, first compound 0.00949 µM) of 54.7% and a viability, T/C (second compound 10 µM, first compound 0.03 µM) of 2.19%. For the same molecule, the viability, T/C (second compound 10 µM, first compound 0.0949 µM) was 1.72% and the viability, T/C (second compound 10 µM, first compound 0.3 µM) was 0.66%.
Work on `COc1cc(Nc2ncc3c(n2)-c2ccc(Cl)cc2C(c2c(F)cccc2OC)=NC3)ccc1C(=O)O` + Cc1ccccc1N=Nc1ccc(NC(=O)c2ccnn2C)c(C)c1 yielded a pIC50 (second compound 0.1 µM) of less than 5.00, a pIC50 (second compound 0.316 µM) of less than 5.00 and a pIC50 (second compound 1 µM) of less than 5.00. It also gave a pIC50 (second compound 3.16 µM) of 5.50, a pIC50 (second compound 10 µM) of less than 5.00 and a viability, T/C [1] of 87.8%. It also gave a viability, T/C [2] of 71.2%, a viability, T/C [3] of 76% and a viability, T/C [4] of 48.9%. The viability, T/C [5] was 49.6%, the viability, T/C [6] was 51.5% and the viability, T/C [7] was 79.8%. For the same molecule, the viability, T/C [8] was 68.1%, the viability, T/C [9] was 68.7% and the viability, T/C [10] was 60.6%. For the same molecule, the viability, T/C [11] was 52.6%, the viability, T/C [12] was 54.1% and the viability, T/C [13] was 79.5%. The viability, T/C [14] was 69.3%, the viability, T/C [15] was 60.6% and the viability, T/C [16] was 48.7%. The viability, T/C [17] was 52.6%, the viability, T/C [18] was 60.1% and the viability, T/C [19] was 64.7%. The viability, T/C [20] was 64.5%, the viability, T/C [21] was 69.2% and the viability, T/C [22] was 49.2%. For the same molecule, the viability, T/C [23] was 54.9%, the viability, T/C [24] was 57.3% and the viability, T/C [25] was 90.6%. For the same molecule, the viability, T/C [26] was 84.8%, the viability, T/C [27] was 85.5% and the viability, T/C [28] was 74.2%. The viability, T/C [29] was 75.4% and the viability, T/C [30] was 70.3%.
For `Cn1ncnc1C1c2n[nH]c(=O)c3cc(F)cc(c23)NC1c1ccc(F)cc1` (stereo not given) + Cc1ccccc1N=Nc1ccc(NC(=O)c2ccnn2C)c(C)c1, the pIC50 (second compound 0.1 µM) was less than 7.00, the pIC50 (second compound 0.316 µM) was less than 7.00 and the pIC50 (second compound 1 µM) was less than 7.00. It also gave a pIC50 (second compound 3.16 µM) of less than 7.00, a pIC50 (second compound 10 µM) of less than 7.00 and a viability, T/C (second compound 0.1 µM, first compound 0.000316 µM) of 100%. For the same molecule, the viability, T/C (second compound 0.1 µM, first compound 0.001 µM) was 110%, the viability, T/C (second compound 0.1 µM, first compound 0.00316 µM) was 110% and the viability, T/C (second compound 0.1 µM, first compound 0.01 µM) was 98.2%. The viability, T/C [1] was 79%, the viability, T/C [2] was 96.7% and the viability, T/C (second compound 0.316 µM, first compound 0.000316 µM) was 104%. It also gave a viability, T/C (second compound 0.316 µM, first compound 0.001 µM) of 112%, a viability, T/C (second compound 0.316 µM, first compound 0.00316 µM) of 75.8% and a viability, T/C (second compound 0.316 µM, first compound 0.01 µM) of 74.3%. The viability, T/C [7] was 67.1%, the viability, T/C [8] was 73.5% and the viability, T/C (second compound 1 µM, first compound 0.000316 µM) was 98.2%. For the same molecule, the viability, T/C (second compound 1 µM, first compound 0.001 µM) was 84.3%, the viability, T/C (second compound 1 µM, first compound 0.00316 µM) was 73.3% and the viability, T/C (second compound 1 µM, first compound 0.01 µM) was 72.8%. It also gave a viability, T/C [13] of 66.3%, a viability, T/C [14] of 66% and a viability, T/C (second compound 3.16 µM, first compound 0.000316 µM) of 86.9%. The viability, T/C (second compound 3.16 µM, first compound 0.001 µM) was 87.8%, the viability, T/C (second compound 3.16 µM, first compound 0.00316 µM) was 87.6% and the viability, T/C (second compound 3.16 µM, first compound 0.01 µM) was 67.4%. For the same molecule, the viability, T/C [19] was 65.6%, the viability, T/C [20] was 62.8% and the viability, T/C (second compound 10 µM, first compound 0.000316 µM) was 91.8%. The viability, T/C (second compound 10 µM, first compound 0.001 µM) was 84%, the viability, T/C (second compound 10 µM, first compound 0.00316 µM) was 102% and the viability, T/C (second compound 10 µM, first compound 0.01 µM) was 86%. For the same molecule, the viability, T/C [25] was 82.3% and the viability, T/C [26] was 66.2%.
For `NS(=O)(=O)OCC1CC(n2ccc3c(NC4CCc5ccccc54)ncnc32)CC1O` (stereo not given) + Cc1ccccc1N=Nc1ccc(NC(=O)c2ccnn2C)c(C)c1, the pIC50 (second compound 0.1 µM) was 6.03, the pIC50 (second compound 0.316 µM) was 6.03 and the pIC50 (second compound 1 µM) was 6.14. It also gave a pIC50 (second compound 3.16 µM) of 6.36, a pIC50 (second compound 10 µM) of 6.37 and a viability, T/C [1] of 104%. The viability, T/C [2] was 117%, the viability, T/C [3] was 96.4% and the viability, T/C [4] was 47.4%. It also gave a viability, T/C [5] of 23.7%, a viability, T/C [6] of 22.1% and a viability, T/C [7] of 104%. The viability, T/C [8] was 115%, the viability, T/C [9] was 98.8% and the viability, T/C [10] was 46.1%. It also gave a viability, T/C [11] of 27.3%, a viability, T/C [12] of 18.3% and a viability, T/C [13] of 117%. The viability, T/C [14] was 127%, the viability, T/C [15] was 83.5% and the viability, T/C [16] was 39.5%. For the same molecule, the viability, T/C [17] was 24.2%, the viability, T/C [18] was 22.6% and the viability, T/C [19] was 103%. It also gave a viability, T/C [20] of 108%, a viability, T/C [21] of 58.3% and a viability, T/C [22] of 32.7%. For the same molecule, the viability, T/C [23] was 24.6%, the viability, T/C [24] was 20.9% and the viability, T/C [25] was 96.2%. For the same molecule, the viability, T/C [26] was 104%, the viability, T/C [27] was 59% and the viability, T/C [28] was 30.1%. The viability, T/C [29] was 23.4% and the viability, T/C [30] was 20.3%.
Work on `O=C(C=Cc1cccc(S(=O)(=O)Nc2ccccc2)c1)NO` + Cc1ccccc1N=Nc1ccc(NC(=O)c2ccnn2C)c(C)c1 yielded a pIC50 (second compound 0.1 µM) of 5.63, a pIC50 (second compound 0.316 µM) of 5.61 and a pIC50 (second compound 1 µM) of 5.65. It also gave a pIC50 (second compound 3.16 µM) of 5.64, a pIC50 (second compound 10 µM) of 5.59 and a viability, T/C [1] of 137%. For the same molecule, the viability, T/C [2] was 128%, the viability, T/C [3] was 126% and the viability, T/C [4] was 92.2%. The viability, T/C [5] was 35.2%, the viability, T/C [6] was 6.57% and the viability, T/C [7] was 135%. It also gave a viability, T/C [8] of 144%, a viability, T/C [9] of 121% and a viability, T/C [10] of 107%. For the same molecule, the viability, T/C [11] was 32.6%, the viability, T/C [12] was 6.91% and the viability, T/C [13] was 136%. The viability, T/C [14] was 135%, the viability, T/C [15] was 126% and the viability, T/C [16] was 87%. For the same molecule, the viability, T/C [17] was 35.1%, the viability, T/C [18] was 6.47% and the viability, T/C [19] was 102%. The viability, T/C [20] was 127%, the viability, T/C [21] was 123% and the viability, T/C [22] was 86.5%. For the same molecule, the viability, T/C [23] was 35.9%, the viability, T/C [24] was 5.9% and the viability, T/C [25] was 128%. For the same molecule, the viability, T/C [26] was 128%, the viability, T/C [27] was 115% and the viability, T/C [28] was 89%. For the same molecule, the viability, T/C [29] was 41.1% and the viability, T/C [30] was 7.02%.
